# In US10905676B2, “Angiotensin II receptor antagonist for the prevention or treatment of systemic diseases in cats” (priority 2017, dated 2021):
# Experiments:
# [1] = tested on: cats with systemic hypertension; assay: U.S. study of safety and effectiveness in cats with systemic hypertension (Example 4); format: in vivo
# Text: Of the remaining 288 cats used for the safety summary, 192 received IVP and 96 received ICP from a total of 33 sites within the United States (US) and Canada. […] Overall, both treatment groups were evenly distributed with regard to demographics and baseline characteristics including age, body weight, mSBP, retinal/fundic changes, and laboratory values. The median age of cats enrolled in this study was 14.2 years. Upon enrollment into the study, cats were orally administered telmisartan by their owners, where the owners were given the option of dosing the treatments around or on the food or via syringe. A dosing syringe was provided with demarcations in 0.1 mL increments as well as a dose and volume to be given, rounded to the nearest 0.1 mL (where the calculation was based on kg of body weight for each cat at Visit 1, and the dose was recalculated at each subsequent visit using the current body weight). […] Following Visit 2 (approximately Day 14), the dose was decreased to the 2 mg/kg once daily (SID) maintenance dose. The reduction and maintenance dosage regimen for the cats in the study is set forth in Table 6: The maintenance dose for a cat in the study could be further down-titrated if the mSBP of the cat remained below 120 mmHg from Visit 2 (at about day 14) and onward. […] At Visit 2 and at Unscheduled Visits, blood and urine samples were collected at the discretion of the Investigator. Changes in all parameters were summarized by treatment group as well as by subpopulation, if appropriate. The primary variable for statistical analysis was mSBP reduction from baseline observed at Visit 2. […] Telmisartan was successful in fulfilling both primary criteria for efficacy in cats as described below.
# [2] = tested on: cats with systemic hypertension; assay: Six-month extended-use study in cats with systemic hypertension (Example 5); format: in vivo; conditions: for Group mSBP, Mean: baseline 176
# Description: The primary variables for assessment in this extensive use study were adverse events and change from baseline in retinal photographs. […] No placebo group was used in this study. […] The maintenance dose was down-titrated if the mSBP was below the target range of 120-160 mmHg at any visit. In those cases, the dose was reduced to 1 mg/kg and further reduced to 0.5 mg/kg SID if mSBP remained below the target range. […] All parameters were evaluated by the Investigator for clinical significance. The parameters were then compared to baseline, and changes were summarized by treatment group as well as by subpopulation, if appropriate.
# [3] = Safety after repeated oral administration over four weeks (Example 3); format: in vivo, cats
# Description: 5-5. 1 kg were used in this study. The animals were allocated to 3 groups, 4 animals per group. […] The bottles with the test/control article looked identical with the exception of the animal no. in order to achieve blinding.
# Blood samples for haematology and clinical chemistry were collected from the animals on days-1 (i.e. prior to the first treatment) and again on days 3, 7, 14, 28. Body weights were measured weekly and electrocardiography recording were made on days −1, 14, 21 and 28. A detailed physical examination including determination of rectal temperature and respiratory rate was carried out on days -1, 7, 14, 22 and 28. Systolic blood pressure (once daily) and heart rate (twice daily) were determined five days per week beginning prior to treatment until necropsy. The palatability of the administered article was assessed at various time points throughout treatment using a scoring system. On day 28 of the study, all animals were subjected to necropsy and stomach and kidneys were examined histopathologically. Relevant parameters were analysed using appropriate statistical procedures.
# [4] = human patients, 160 mg daily (80 mg twice daily); cited from earlier work
# [5] = Pharmacokinetics and absolute bioavailability after single oral or intravenous administration (Example 1)
# Description: Four clinically healthy male and female domestic short hair cats (HsdCpb: CADS) with a body weight range of 2.6-4.2 kg were used in this study. The animals were randomly allocated to 2 groups, 2 animals per group.
# Blood samples were drawn at 0 h (i.e. prior to treatment), 5 (after i. v. injection only), 15, 30 and 60 min as well as 2, 4, 8, 24, 72 and 96 h after each treatment. Clinical observations were also conducted at these time points. Plasma samples were sent to the analytical laboratory and analysed there using a validated method. The plasma levels measured in each animal were subjected to various pharmacokinetic calculations.
# [6] = cats, single i.v. 1 mg/kg, mean, 1 mg/kg
# [7] = cats, single oral 1 mg/kg, mean, 1 mg/kg
compound,measurement,setting,value
"CCCc1nc2c(C)cc(-c3nc4ccccc4n3C)cc2n1Cc1ccc(-c2ccccc2C(=O)O)cc1 [telmisartan, 4′-[2-n-propyl-4-methyl-6-(1-methylbenzimidazol-2-yl)-benzimidazol-1-ylmethyl]-biphenyl-2-carboxylic acid]",LSM mSBP change from baseline to Visit 2,"[1]; 1.5 mg/kg BID oral, about Day 14, N 141",−23.3 ΔmmHg
same,"arithmetic mean decrease of mSBP, baseline minus Visit 3","[1]; Visit 3 (about Day 28), 1.5 mg/kg BID then 2 mg/kg SID",23.9 mmHg
same,mean decrease of mSBP,[1]; baseline to Visit 2 (about Day 14),23.3 mmHg
same,Serious Adverse Events (SAEs) attributable,"[1]; hypertensive cats, 28 days",very few
same,"percentage of cats with retinal lesions scoring ""better""",[1]; retinal photographs vs baseline,11.5%
same,"rescue cases (removed due to mSBP >180 mmHg), share of end of study outcomes",[2]; 8/107 cats,7.5%
same,SAEs determined to be possibly attributable to telmisartan,[2]; 11 SAEs,10.3%
same,cats with Serious AEs (SAEs),"[2]; 24 cats of 107, six-month study",22.4%
same,cats with Non-serious AEs (NSAEs),"[2]; 91 cats of 107, six-month study",85.0%
same,cases with SBP maintained within the target range (120-180 mmHg),[2]; 97/107 cats,90.7%
same,"cats scored as ""better"" in the IRIS blood pressure sub-staging",[2]; CKD and CKD and hyperthyroid subpopulations,83.0% to 98.1
same,Mean SBP of Cat 329-454,"[2]; Visit 2 (Week 2), after 3.0 (1.5 BID) mg/kg daily",108.3 mmHg
same,Mean SBP of Cat 329-454,"[2]; Visit 3 (Week 4), after 1.0 mg/kg SID",116.0 mmHg
same,Mean SBP of Cat 329-454,"[2]; Visit 4 (Week 8), after 0.5 mg/kg SID",157.7 mmHg
same,Mean SBP of Cat 329-454,"[2]; Visit 5 (Week 14), after 2.0 mg/kg SID",100.0 mmHg
same,Mean SBP of Cat 329-454,"[2]; Visit 6 (Week 20), after 1.0 mg/kg SID",125.3 mmHg
same,Mean SBP of Cat 329-454,"[2]; Visit 7 (Week 26), after 2.0 mg/kg SID",126.0 mmHg
same,"Group mSBP, Median",[2]; Week 4 (n = 107),149 mmHg
same,Maximum mSBP,[2]; Week 4 (n = 107),179 mmHg
same,Maximum mSBP Change from baseline,[2]; Week 4 (n = 107),14 ΔmmHg
same,Mean mSBP Change from baseline,[2]; Week 4 (n = 107),−29 ΔmmHg
same,Median mSBP Change from baseline,[2]; Week 4 (n = 107),−26 ΔmmHg
same,Minimum mSBP,[2]; Week 4 (n = 107),95 mmHg
same,Minimum mSBP Change from baseline,[2]; Week 4 (n = 107),−76 ΔmmHg
same,"Group mSBP, Mean",[2]; Week 4 (n = 107),148 mmHg
same,"Group mSBP, Median",[2]; Week 8 (n = 102),148 mmHg
same,Maximum mSBP Change from baseline,[2]; Week 8 (n = 102),7 ΔmmHg
same,Mean mSBP Change from baseline,[2]; Week 8 (n = 102),−28 ΔmmHg
same,Median mSBP Change from baseline,[2]; Week 8 (n = 102),−28 ΔmmHg
same,Minimum mSBP,[2]; Week 8 (n = 102),105 mmHg
same,Minimum mSBP Change from baseline,[2]; Week 8 (n = 102),−79 ΔmmHg
same,"Group mSBP, Mean",[2]; Week 8 (n = 102),148 mmHg
same,"Group mSBP, Median",[2]; Week 14 (n = 92),144 mmHg
same,Maximum mSBP Change from baseline,[2]; Week 14 (n = 92),25 ΔmmHg
same,Mean mSBP Change from baseline,[2]; Week 14 (n = 92),−33 ΔmmHg
same,Median mSBP Change from baseline,[2]; Week 14 (n = 92),−32 ΔmmHg
same,Minimum mSBP,[2]; Week 14 (n = 92),77 mmHg
same,Minimum mSBP Change from baseline,[2]; Week 14 (n = 92),−115 ΔmmHg
same,"Group mSBP, Mean",[2]; Week 14 (n = 92),142 mmHg
same,"Group mSBP, Median",[2]; Week 20 (n = 81),148 mmHg
same,Maximum mSBP Change from baseline,[2]; Week 20 (n = 81),16 ΔmmHg
same,Mean mSBP Change from baseline,[2]; Week 20 (n = 81),−30 ΔmmHg
same,Median mSBP Change from baseline,[2]; Week 20 (n = 81),−28 ΔmmHg
same,Minimum mSBP,[2]; Week 20 (n = 81),89 mmHg
same,Minimum mSBP Change from baseline,[2]; Week 20 (n = 81),−91 ΔmmHg
same,"Group mSBP, Mean",[2]; Week 20 (n = 81),145 mmHg
same,"Group mSBP, Median",[2]; Week 26 (n = 73),147 mmHg
same,Maximum mSBP Change from baseline,[2]; Week 26 (n = 73),30 ΔmmHg
same,Mean mSBP Change from baseline,[2]; Week 26 (n = 73),−25 ΔmmHg
same,Median mSBP Change from baseline,[2]; Week 26 (n = 73),−28 ΔmmHg
same,Minimum mSBP,[2]; Week 26 (n = 73),104 mmHg
same,Minimum mSBP Change from baseline,[2]; Week 26 (n = 73),−69 ΔmmHg
same,"Group mSBP, Mean",[2]; Week 26 (n = 73),150 mmHg
same,cats with retinal photographs improved compared to baseline,[2]; at all subsequent visits,6.9% to 7.4
same,mean change in SBP from baseline (reduction),"[2]; each visit, Examples 4 and 5, FIG. 2",greater than 20 mmHg
same,SAE anemia and dehydration,[2]; six-month study,6.5%
same,"SAE anorexia, vomiting",[2]; six-month study,5.6%
same,SAE weight loss,[2]; six-month study,8.4%
same,cases rescued due to hypotension,[2]; two cats,1.9%
same,physical and ECG examinations,[3]; all time points,did not reveal treatment-related findings
same,histopathology of stomach and kidneys,[3]; day 28,no histopathological findings considered to be associated with the treatment
same,necropsy findings,[3]; day 28,No animal showed any specific finding
same,"body weights, rectal temperature, respiratory and heart rates",[3]; during the course of the study,No significant differences
same,clinical findings,"[3]; entire study period, 1 and 3 mg/kg once daily",No clinical findings clearly attributable to the treatment
same,haematological and clinical chemistry parameters including differential leukocyte count,[3]; treated groups vs concurrent controls,No treatment-related differences
same,plasma level (Cmax±SD),[4],about 2800±2400 ng/ml
same,time until which mean plasma concentrations increased,[5]; after oral administration,15 to 30 min
same,plasma concentrations at 24 h,"[5]; both routes, orally and intravenously",No quantifiable plasma concentrations
same,clearance,"[5]; both, domestic short hair (HsdCpb: CADS), plasma, iv, 1 mg/kg",45.5 mL/min/kg
same,V,"[5]; cats, single i.v. 1 mg/kg, mean",8.856 L/kg
same,AUC 0 → ∞,[5]; [6],384.751 ng·h/mL
same,t½,[5]; [6],2.252 h
same,V/f,"[5]; cats, single oral 1 mg/kg, mean",20.453 L/kg
same,AUC 0 → ∞,[5]; [7],150.426 ng·h/mL
same,t max,[5]; [7],0.438 h
same,t½,[5]; [7],2.169 h
same,clinical signs,[5]; entire course of the study,No specific clinical signs
same,tolerability,"[5]; in vivo, 1 mg/kg",well tolerated
